Data taken from publication PMC8757871, “Bridging the Antimicrobial Activity of Two Lactoferricin Derivatives in E. coli and Lipid-Only Membranes” (Frontiers in Medical Technology, 2021).
Read-outs that look alike come from different tables or passages of the source.

What was measured:
E. coli K12 5K = type: cell-based, Escherichia coli; conditions: MIC = IC99.9, 2 h incubation with AMP in PBS at 37°C, then growth in LB about 20 h
Description: Colonies of E. coli K12 5K (courtesy of Günther Koraimann, University of Graz) were grown in LB-agar plates at 37°C. Overnight cultures (ONCs) were prepared by inoculating a single colony in 3 ml LB-medium in sterile polypropylene conical tubes (15 ml), enabling bacterial growth under aerobic conditions for 12−16 h in a shaking incubator at 37°C. Main cultures were prepared by suspending an aliquot of the ONCs in 10 ml LB-medium in sterile polypropylene conical tubes (50 ml) and harvested in the middle of the exponential growth phase. Bacteria were then immediately washed twice and re-suspended in nutrient-free and isotonic phosphate-buffered saline (PBS) solution (phosphate buffer 20 mM, NaCl 130 mM) at pH 7.4. Bacterial concentration was measured via turbidity measurements. The optical density at λ = 600 nm (OD600) was acquired with the spectrophotometer Thermo Spectronic Genesys 20 (Thermo Fisher Scientific, Waltham, MA), where OD600 = 1 corresponds approximately to 8 ×10^8 CFU/ml (where CFU is colony forming units).
The antimicrobial activity of the AMPs on E. coli was tested using a modified susceptibility microdilution assay ([30]) in the bacterial concentration range of 5 × 10^5 to 10^9 CFU/ml. Bacterial suspensions were incubated at a given AMP concentration for 2 h at 37°C (control samples were incubated in buffer only). Then, cell growth was monitored upon addition of double concentrated LB-medium for about 20 h using a Bioscreen C MBR (Oy Growth Curves Ab, Helsinki, Finland).
This allowed us to quantify the number density of surviving bacteria from the onset of the exponential growth via the relation Δtexp = a + blog(ncell), where a and b were obtained from a calibration curve in absence of AMPs (Supplementary Figure 1B). Then, the inhibited bacterial fraction IF=1-ncell([P])/ncell0 was calculated for different values of peptide concentration, [P], and of bacterial number density of the control sample, ncell0 . Following the so-called “equi-activity” analysis ([27], [31]), we further interpolated IF using a Gompertz function, which enabled us to derive inhibitory peptide concentrations ICx, where x is the corresponding inhibited bacterial fraction (Supplementary Figure 1C). By convention, the standard MIC is defined at inhibition levels of 99.9%, i.e., IC99.9 ≡ MIC. Additional control experiments were performed in order to test whether DMSO and acetic acid, used in buffer solutions of both peptides (see above), affect bacterial growth. In particular, the microdilution assays were repeated with LF11-215 dissolved in pure PBS, yielding equivalently delayed onsets of bacterial growth.

[1] = peptide partitioning from tryptophan fluorescence; type: binding; conditions: for K (mole fraction partitioning coefficient) / RB ([P]B/[L]) / [P]W (peptide concentration in the water phase): Trp emission band analysis, after 1 h incubation, HBS pH 7.4, 37°C
Description: All hydrated samples were equilibrated for 1 h at 40°C followed by 5 freeze-and-thaw cycles using liquid N2 and intermittent vortex-mixing. Large unilamellar vesicles (LUVs) were obtained by 31 extrusions with a handheld mini extruder (Avanti Polar Lipids, Alabaster, AL) using a 100 nm pore diameter polycarbonate filter. Vesicle size and polydispersity were determined via DLS using a Zetasizer NANO ZSP (Malvern Panalytical, Malvern, UK). ANTS/DPX-containing vesicles were separated from free ANTS/DPX by exclusion chromatography using a column filled with SephadexTM G-75 (Amersham Biosciences, Little Chalfont, UK) fine gel swollen in iso-osmotic HBS. Phospholipid concentrations for all samples were determined by phosphate analysis.
Fluorescence emission from Trp, present in both peptides, was measured with the Cary Eclipse Fluorescence Spectrophotometer, setting the excitation wavelength to λ= 280 nm, which corresponds to the maximum intensity of the Trp absorption/excitation band. Intensities of exciting and emitting light were adjusted by setting the slit widths of both incident and outgoing beam to 5 or 10 nm, depending on the emission intensity, in order to optimize the signal-to-noise ratio. Emission spectra were background-subtracted to remove contributions originating from the instrument's baseline and scattered light from vesicles. All samples were measured in HBS at 37°C using a quartz cuvette, with a magnetic stirrer to prevent sample sedimentation in the case of aggregation. LUVs ([L] = 100 μM) were mixed with peptides ([P] = 2 and 4 μM), recording fluorescence spectra at various post-mixing time intervals ranging from 0.5 to 60 min. Peptide solutions were measured at concentrations of 2, 3, and 4 μM in order to calibrate their intensity dependence in buffer.
The fluorescence emission band was fitted with the log-normal-like function ([32], [33]) where λmax and I0 are, respectively, wavelength and intensity of the emission peak; Γ is the full-width-at-half-maximum (FWHM) of the band; α is a skewness parameter (fixed at an optimum values 1.36 after testing); and y = α/(α^2 − 1). Spectra from mixtures of LUVs and peptides were analyzed with a linear combination of two independent bands I^W and I^B, referring to AMPs in bulk (W) and partitioned into the lipid bilayer (B). λ^W and Γ^W were fixed to the reference values obtained by analyzing spectra from pure AMPs. Instead, I0W , I0B , λ^B, and Γ^B were adjustable parameters. The so obtained set of I0W values was converted to the concentration of dissociated peptides [P]W and further analyzed for peptide partitioning as detailed in section 2.3.1.
Following a previously reported thermodynamic formalism for the partitioning of peptides into lipid bilayers ([37]), based on the free energy of transfer of molecules from water into octanol ([38]), we define the mole fraction partitioning coefficient, K, as […]
(3) K=[P]B/([P]B+[L])/[P]W/([P]W+[W])≃[P]B[W]/[P]W[L], where [P]B is the molar concentration of peptides partitioned into the lipid phase; [P]W is the peptide concentration in the water phase; and [L] and [W] are, respectively, the molar concentrations of lipids and bulk water (55.5 M at 25°C and 55.3 M at 37°C). The approximation for K (Equation 3) is obtained applying [W] ≫ [PW] and [L] ≫ [PB] (similarly, the concentration of ions in water, i.e., buffer solutions, is negligible compared to [W]). By definition, the total concentration of peptides is [P] = [P]W + [P]B, thus leading to […]
(4) [P]=RB[W]/K︸[P]W+RB[L]︸[P]B=RB([W]/K+[L]),

[2] = POPE/POPG LUVs [L] = 100 μM, [P] = 2 μM
[3] = POPE/POPG LUVs [L] = 100 μM, [P] = 4 μM
[4] = POPE/POPG/TOCL LUVs [L] = 100 μM, [P] = 2 μM
[5] = POPE/POPG/TOCL LUVs [L] = 100 μM, [P] = 4 μM
[6] = POPG LUVs [L] = 100 μM, [P] = 2 μM
[7] = POPG LUVs [L] = 100 μM, [P] = 4 μM

Substance: H-FWRIRIRR-NH2 [LF11-215, H-FWRIRIRR-NH2]
- MIC (E. coli K12 5K; ncell = 10^6 CFU/ml): 13.7 ± 0.4 µM
- MIC (E. coli K12 5K; ncell = 10^9 CFU/ml): 158 ± 2 µM
- membrane partitioning, times higher than for LF11-324 ([1]; POPE/POPG/TOCL lipid mixtures): ~ 1.3 times
- K (mole fraction partitioning coefficient) [1, 2]: 70 ± 4 ×10^4
- RB ([P]B/[L]) [1, 2]: 11.2 ± 0.3 ×10^−3
- [P]W (peptide concentration in the water phase) [1, 2]: 0.88 ± 0.03 µM
- K (mole fraction partitioning coefficient) [1, 3]: 43 ± 3 ×10^4
- RB ([P]B/[L]) [1, 3]: 17.5 ± 0.7 ×10^−3
- [P]W (peptide concentration in the water phase) [1, 3]: 2.25 ± 0.07 µM
- K (mole fraction partitioning coefficient) [1, 4]: 82 ± 4 ×10^4
- RB ([P]B/[L]) [1, 4]: 11.9 ± 0.2 ×10^−3
- [P]W (peptide concentration in the water phase) [1, 4]: 0.81 ± 0.02 µM
- K (mole fraction partitioning coefficient) [1, 5]: 139 ± 6 ×10^4
- RB ([P]B/[L]) [1, 5]: 28.6 ± 0.3 ×10^−3
- [P]W (peptide concentration in the water phase) [1, 5]: 1.14 ± 0.03 µM
- K (mole fraction partitioning coefficient) [1, 6]: 161 ± 6 ×10^4
- RB ([P]B/[L]) [1, 6]: 14.9 ± 0.3 ×10^−3
- [P]W (peptide concentration in the water phase) [1, 6]: 0.513 ± 0.015 µM
- K (mole fraction partitioning coefficient) [1, 7]: 217 ± 8 ×10^4
- RB ([P]B/[L]) [1, 7]: 31.9 ± 0.4 ×10^−3
- [P]W (peptide concentration in the water phase) [1, 7]: 0.81 ± 0.04 µM

Substance: H-PFFWRIRIRR-NH2 [LF11-324, H-PFFWRIRIRR-NH2]
- MIC (E. coli K12 5K; ncell = 10^6 CFU/ml): 11.1 ± 0.6 µM
- MIC (E. coli K12 5K; ncell = 10^9 CFU/ml): 57 ± 2 µM
- K (mole fraction partitioning coefficient) [1, 2]: 67 ± 4 ×10^4
- RB ([P]B/[L]) [1, 2]: 11.0 ± 0.3 ×10^−3
- [P]W (peptide concentration in the water phase) [1, 2]: 0.90 ± 0.02 µM
- K (mole fraction partitioning coefficient) [1, 3]: 47 ± 3 ×10^4
- RB ([P]B/[L]) [1, 3]: 18.4 ± 0.6 ×10^−3
- [P]W (peptide concentration in the water phase) [1, 3]: 2.16 ± 0.06 µM
- K (mole fraction partitioning coefficient) [1, 4]: 63 ± 4 ×10^4
- RB ([P]B/[L]) [1, 4]: 10.6 ± 0.3 ×10^−3
- [P]W (peptide concentration in the water phase) [1, 4]: 0.95 ± 0.03 µM
- K (mole fraction partitioning coefficient) [1, 5]: 111 ± 5 ×10^4
- RB ([P]B/[L]) [1, 5]: 26.7 ± 0.4 ×10^−3
- [P]W (peptide concentration in the water phase) [1, 5]: 1.33 ± 0.04 µM
- K (mole fraction partitioning coefficient) [1, 6]: 61 ± 4 ×10^4
- RB ([P]B/[L]) [1, 6]: 10.5 ± 0.3 ×10^−3
- [P]W (peptide concentration in the water phase) [1, 6]: 0.95 ± 0.03 µM
- K (mole fraction partitioning coefficient) [1, 7]: 20 ± 20 ×10^4
- RB ([P]B/[L]) [1, 7]: 10.7 ± 0.9 ×10^−3
- [P]W (peptide concentration in the water phase) [1, 7]: 2.93 ± 0.09 µM
